Patent US6602664B2 (priority 1998, dated 2003)
“And” between values parts separate entries of the source, which are not always exact repeats. Equal entries are not always repeated. Where two headings read alike, the source gives them in different places.

Tests used:
Type in all cases: cell-based
[1] = test system: recombinant HIV-1 virus isolates
From the text: The aim of the study was to determine the potency of the inhibitory effect of a new generation of NRTIs on Multi Drug Resistant isolates and to compare it with their effect on wild-type HIV-1 isolates. All recombinant viruses were taken from the VIRCO repository of phenotypically and genotypically characterized virus isolates. Hirsch et al. Antiretroviral Drug Resistance Testing in Adults with HIV Infection. JAMA; 1998: 79(24) 1984-1991. See also Pauwels et al. Comprehensive HIV drug Resistance monitoring using rapid, high-throughput phenotypic and genotypic assays with correlative data analysis. Antiviral Therapy, 1998: 3: 35 Abstract 51.
Phenotypic drug susceptibility determination of recombinant virus isolates is described in Hertogs et al. A Rapid Method for Simultaneous Detection of Phentypic Resistance to Inhibitors of Protease and Reverse Transcriptase in Recombinant HIV-1 Isolates from Patients Treated with Antiretroviral Drugs. Antimicrob. Agents Chemother. 1998; 42(2): 269-276. The basic principle of the Antivirogram® technology is the construction of chimeric HIV-1 strains composed of the protease (PR) and reverse transcriptase (RT) gene sequences which are isolated and amplified from patient viral RNA. Amplicons are subsequently transfected into CD4+T cells together with a standard laboratory isogenic (HXB2) HIV-1 DNA construct from which the PR/RT gene sequences were deleted. After homologous recombination, new viruses whose diversity reflects the original population amplified from the plasma are produced at high level from these cells.
The virus infectivity (CCID50) is determined by an end-point dilution method. The titer is calculated from the degree of infection, measured by the intensity of reporter-gene signal as generated by serial dilutions of the virus shock. The chimeric (clinical isolates and wild-type reference) viruses are then analyzed for their phenotypic sensitivity (i.e. susceptibility) to the different PR and RT-inhibitors in an automated reporter gene-based assay using serial dilutions of the compound. The standardisation of the Antivirogram®n assay allows for simultaneous testing of all clinically approved drugs in one 384-well microtiter plate. The experimental drugs are included in separate plates. Each plate contains multiple replicates of mock-infected wells, virus-infection control wells and blank (medium-only) well. All plates are tested in duplicate. 50% Inhibitory concentrations are calculated based on reporter signals obtained through optical reading of 384-well plates containing serial dilutions of compounds, a normalised quantity of virus and by taking into account all relevant control wells. Approval (or not) is done according to critical ranges and settings as described in the corresponding VIRCO Standard Operating Procedure.
A more detailed description of the protocol is as follows. Samples were stored frozen. […] To confirm the genotypic pattern, genotyping (ABI-sequencing) was performed after recombination and culture of the laboratory strains by analysis of cell viability, calculation of results (dose-response curves, IC50 values), and reporting of data.

[2] = test system: drug-resistant HIV-1 in PBMC; test: microbe, parasite or virus in culture; conditions: for EC50: Human immunodeficiency virus 1, PBMC, PBMC
[3] = test system: drug-resistant HIV-1 in MT-2; test: microbe, parasite or virus in culture; conditions: MT-2
[4] = test system: drug-resistant HIV-1 in MT-4; test: microbe, parasite or virus in culture
[5] = test system: HIV-1 replication in human PBM cells; test: microbe, parasite or virus in culture
Experimental: Cells and viruses. […] Antimicrobial Agents Chemother 1992;36(11): 2423-2431.
Cell pellets were washed, centrifuged, lysed and the proviral DNA extracted as previously described. Cytotoxicity of the compounds was determined using the Promega Cell Titer 96 dye uptake assay (Madison, Wis.) in 1-2 day PHA-stimulated PBM cells after 5 days in culture. The median effective concentration (EC50) and inhibitory concentration (IC50) were derived from the computer-generated median effect plot of the dose-effect data, as described previously.

[6] = test system: drug-resistant HIV-1 in HeLa HT4-6C; test: microbe, parasite or virus in culture; conditions: Human immunodeficiency virus 1, HeLa
[7] = clinical isolate (pre) prior to long-term ZDV monotherapy, row HIV-1 (A012D), read-out: Untreated EC50
[8] = clinical isolate HIV-1 (A012D:M41L?/D67N/K70R/T215F/K219Q), read-out: Selected Varient EC50
[9] = Human immunodeficiency virus 1, PBMC, 144 h

## [N-]=[N+]=N[C@H]1C[C@H](n2ccc(=O)[nH]c2=O)O[C@@H]1CO [CS-87, 3′-Azido-2′,3′-dideoxyuridine]
[1]
  activity against multiple-drug resistant forms of HIV: active
  susceptibility of multiple dideoxynucleoside resistant viruses: resistant
[2]
  fold change in EC50: < 3 fold
[2]; [7]
  EC50: 400 nM
[2]; [8]
  EC50: 16500 nM
[2]; molecular clone 1 (T215Y/M41L), read-out: Selected Varient EC50
  EC50: 2100 nM
[2]; molecular clone (M184V/T215Y), read-out: Selected Varient EC50
  EC50: 1100 nM
[2]; molecular clone HIV-1 (D67N/K70R/T215Y/K219Q), read-out: Selected Varient EC50
  EC50: 300 nM
[2]; molecular clone HIV-1 (K65R), read-out: Selected Varient EC50
  EC50: 1100 nM
[2]; molecular clone HIV-1 (L74V), read-out: Selected Varient EC50
  EC50: 600 nM
[2]; molecular clone HIV-1 (M184V), read-out: Selected Varient EC50
  EC50: 600 nM
[2]; molecular clone HIV-1 (T215Y), read-out: Selected Varient EC50
  EC50: 300 nM
[2]; parent strain HIV-1 (xxLAI), row 1 (T215Y/M41L), read-out: Untreated EC50
  EC50: 1100 nM
[2]; parent strain HIV-1 (xxLAI), row (M184V/T215Y), read-out: Untreated EC50
  EC50: 1100 nM
[2]; parent strain HIV-1 (xxLAI), row HIV-1 (D67N/K70R/T215Y/K219Q), read-out: Untreated EC50
  EC50: 1100 nM
[2]; parent strain HIV-1 (xxLAI), row HIV-1 (K65R), read-out: Untreated EC50
  EC50: 1100 nM
[2]; parent strain HIV-1 (xxLAI), row HIV-1 (L74V), read-out: Untreated EC50
  EC50: 1100 nM
[2]; parent strain HIV-1 (xxLAI), row HIV-1 (M184V), read-out: Untreated EC50
  EC50: 1100 nM
[2]; parent strain HIV-1 (xxLAI), row HIV-1 (T215Y), read-out: Untreated EC50
  EC50: 1100 nM
[3]; Human immunodeficiency virus 1, MT2, molecular clone HIV-1 (D67N/K70R/M184V/T215Y/K219Q), read-out: Selected Varient EC50
  EC50: 53400 nM
[3]; Human immunodeficiency virus 1, MT2, molecular clone HIV-1 (D67N/K70R/T215Y/K219Q), read-out: Selected Varient EC50
  EC50: > 90000 nM
[3]; Human immunodeficiency virus 1, MT2, molecular clone HIV-1 (M41L/D67N/M184V/H208Y/L210W/R211K/L214F/T215Y), read-out: Selected Varient EC50
  EC50: 50200 nM
[3]; Human immunodeficiency virus 1, MT2, molecular clone HlV-1 (M184V), read-out: Selected Varient EC50
  EC50: 16800 nM
[3]; Human immunodeficiency virus 1, MT2, parent strain HIV-1 (xxLAI), row HIV-1 (D67N/K70R/M184V/T215Y/K219Q), read-out: Untreated EC50
  EC50: 20000 nM
[3]; Human immunodeficiency virus 1, MT2, parent strain HIV-1 (xxLAI), row HIV-1 (D67N/K70R/T215Y/K219Q), read-out: Untreated EC50
  EC50: 20000 nM
[3]; Human immunodeficiency virus 1, MT2, parent strain HIV-1 (xxLAI), row HIV-1 (M41L/D67N/M184V/H208Y/L210W/R211K/L214F/T215Y), read-out: Untreated EC50
  EC50: 20000 nM
[3]; Human immunodeficiency virus 1, MT2, parent strain HIV-1 (xxLAI), row HlV-1 (M184V), read-out: Untreated EC50
  EC50: 20000 nM
[4]; Human immunodeficiency virus 1, MT4, clinical isolate (pre) prior to long-term ZDV monotherapy, row HIV-1 (A-161), read-out: Untreated EC50
  EC50: 600 nM
[4]; Human immunodeficiency virus 1, MT4, clinical isolate (pre) prior to long-term ZDV monotherapy, row HIV-1 (C-246), read-out: Untreated EC50
  EC50: 600 nM
[4]; Human immunodeficiency virus 1, MT4, clinical isolate (pre) prior to long-term ZDV monotherapy, row HIV-1 (G-68), read-out: Untreated EC50
  EC50: 600 nM
[4]; Human immunodeficiency virus 1, MT4, clinical isolate (pre) prior to long-term ZDV monotherapy, row HIV-1 (R-102), read-out: Untreated EC50
  EC50: 600 nM
[4]; Human immunodeficiency virus 1, MT4, clinical isolate (pre) prior to long-term ZDV monotherapy, row HIV-1 (X-78), read-out: Untreated EC50
  EC50: 600 nM
[4]; Human immunodeficiency virus 1, MT4, clinical isolate HIV-1 (A-161), long-term ZDV monotherapy, read-out: Selected Varient EC50
  EC50: 8600 nM
[4]; Human immunodeficiency virus 1, MT4, clinical isolate HIV-1 (C-246), long-term ZDV monotherapy, read-out: Selected Varient EC50
  EC50: 10300 nM
[4]; Human immunodeficiency virus 1, MT4, clinical isolate HIV-1 (G-68), long-term ZDV monotherapy, read-out: Selected Varient EC50
  EC50: 500 nM
[4]; Human immunodeficiency virus 1, MT4, clinical isolate HIV-1 (R-102), long-term ZDV monotherapy, read-out: Selected Varient EC50
  EC50: 300 nM
[4]; Human immunodeficiency virus 1, MT4, clinical isolate HIV-1 (X-78), long-term ZDV monotherapy, read-out: Selected Varient EC50
  EC50: 500 nM
[5]
  m ± SE (slope of median effect plot): 1.62 ± 0.13 and 1.50 ± 0.33 and 1.01 ± 0.01
[5]; [9]
  inhibition at 10 µM: 34.5%
  inhibition at 100 µM: 32%
  inhibition at 1000 µM: 87.3%
[6]; [7]
  EC50: 400 nM
[6]; clinical isolate (pre) prior to long-term ZDV monotherapy, row HIV-1 (A018C), read-out: Untreated EC50
  EC50: 1000 nM
[6]; clinical isolate (pre) prior to long-term ZDV monotherapy, row HIV-1 (A036DD), read-out: Untreated EC50
  EC50: 600 nM
[6]; clinical isolate (pre) prior to long-term ZDV monotherapy, row HIV-1 (P022C), read-out: Untreated EC50
  EC50: 400 nM
[6]; clinical isolate (pre) prior to long-term ZDV monotherapy, row HIV-1 (P026B), read-out: Untreated EC50
  EC50: 400 nM
[6]; [8]
  EC50: 89000 nM
[6]; clinical isolate HIV-1 (A018C:D67N/K70R/T215Y/K219Q), read-out: Selected Varient EC50
  EC50: 50000 nM
[6]; clinical isolate HIV-1 (A036DD:M41L/D67N/K70R/T215Y), read-out: Selected Varient EC50
  EC50: 56000 nM
[6]; clinical isolate HIV-1 (P022C:M41L?/D67N/K70R/T215F/K219Q), read-out: Selected Varient EC50
  EC50: 40000 nM
[6]; clinical isolate HIV-1 (P026B:M41L?/D67N/K70R/T215Y), read-out: Selected Varient EC50
  EC50: 100000 nM
